How the values were obtained:
[1] = target: Glycogen synthase kinase-3 beta (Homo sapiens, UniProt P49841); test: Selectivity interaction (Rxn Biology Kinase assay) EUB0001632a GSK3B; settings: at 10 µM
[2] = target: Histone-lysine N-methyltransferase KMT5C (Homo sapiens) (UniProt Q86Y97); test: Selectivity interaction (Methyltransferase screen (Scintillation proximity assays)) EUB0000255b SUV420H2
[3] = target: Mitogen-activated protein kinase kinase kinase 1 (Homo sapiens, UniProt Q13233); test: Selectivity interaction (KinomeScan (DiscoverX)) EUB0000695a MAP3K1; settings: at 100 nM
[4] = target: Epidermal growth factor receptor (Homo sapiens, UniProt P00533); test: Selectivity interaction (Kinase screening (Nanosyn)) EUB0000604a EGFR
Sequence of Epidermal growth factor receptor (P00533 whole entry): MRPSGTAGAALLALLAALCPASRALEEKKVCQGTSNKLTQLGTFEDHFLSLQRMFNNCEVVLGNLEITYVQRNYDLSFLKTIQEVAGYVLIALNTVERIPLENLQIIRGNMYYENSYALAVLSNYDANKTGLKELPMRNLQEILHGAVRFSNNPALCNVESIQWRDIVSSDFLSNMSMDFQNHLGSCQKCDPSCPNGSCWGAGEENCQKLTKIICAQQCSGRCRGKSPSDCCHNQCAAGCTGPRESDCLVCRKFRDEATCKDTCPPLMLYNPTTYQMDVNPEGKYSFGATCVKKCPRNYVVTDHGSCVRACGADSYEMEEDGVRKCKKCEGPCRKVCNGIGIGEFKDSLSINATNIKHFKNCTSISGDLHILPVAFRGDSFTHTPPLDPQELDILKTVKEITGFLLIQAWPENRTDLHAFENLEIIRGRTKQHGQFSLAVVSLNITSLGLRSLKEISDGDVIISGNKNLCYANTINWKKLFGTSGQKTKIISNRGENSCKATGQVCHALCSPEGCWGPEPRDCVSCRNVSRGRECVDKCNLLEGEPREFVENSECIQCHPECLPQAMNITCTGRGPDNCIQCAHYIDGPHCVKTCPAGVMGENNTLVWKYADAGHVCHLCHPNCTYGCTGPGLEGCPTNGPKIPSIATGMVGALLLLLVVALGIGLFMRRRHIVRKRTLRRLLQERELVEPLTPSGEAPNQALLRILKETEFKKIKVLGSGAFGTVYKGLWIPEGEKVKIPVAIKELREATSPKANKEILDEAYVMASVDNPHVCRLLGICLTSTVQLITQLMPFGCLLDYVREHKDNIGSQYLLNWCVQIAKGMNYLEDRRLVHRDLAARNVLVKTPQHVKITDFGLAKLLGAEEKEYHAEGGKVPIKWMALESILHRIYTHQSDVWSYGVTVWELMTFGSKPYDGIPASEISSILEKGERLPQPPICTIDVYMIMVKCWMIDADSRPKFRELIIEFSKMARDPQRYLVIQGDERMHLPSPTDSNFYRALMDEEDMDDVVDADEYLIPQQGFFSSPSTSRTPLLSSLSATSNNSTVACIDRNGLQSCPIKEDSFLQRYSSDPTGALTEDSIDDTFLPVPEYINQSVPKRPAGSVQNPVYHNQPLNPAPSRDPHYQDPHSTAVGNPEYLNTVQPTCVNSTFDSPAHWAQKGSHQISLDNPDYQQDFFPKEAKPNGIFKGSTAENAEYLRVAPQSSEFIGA

[5] = target: Tyrosine-protein kinase SYK (Homo sapiens, UniProt P43405); test: Selectivity interaction (Millipore kinase profiler) EUB0000124b SYK; settings: at 10 µM
[6] = target: T1, Serine/threonine-protein kinase Sgk3 (Homo sapiens) (UniProt Q96BR1); test: Selectivity interaction (Ambit KINOMEscan and KiNATiv profiling in Jurkat cells) EUB0000090b SGK3; format: cell-based; settings: at 1 µM
T1 sequence (whole entry): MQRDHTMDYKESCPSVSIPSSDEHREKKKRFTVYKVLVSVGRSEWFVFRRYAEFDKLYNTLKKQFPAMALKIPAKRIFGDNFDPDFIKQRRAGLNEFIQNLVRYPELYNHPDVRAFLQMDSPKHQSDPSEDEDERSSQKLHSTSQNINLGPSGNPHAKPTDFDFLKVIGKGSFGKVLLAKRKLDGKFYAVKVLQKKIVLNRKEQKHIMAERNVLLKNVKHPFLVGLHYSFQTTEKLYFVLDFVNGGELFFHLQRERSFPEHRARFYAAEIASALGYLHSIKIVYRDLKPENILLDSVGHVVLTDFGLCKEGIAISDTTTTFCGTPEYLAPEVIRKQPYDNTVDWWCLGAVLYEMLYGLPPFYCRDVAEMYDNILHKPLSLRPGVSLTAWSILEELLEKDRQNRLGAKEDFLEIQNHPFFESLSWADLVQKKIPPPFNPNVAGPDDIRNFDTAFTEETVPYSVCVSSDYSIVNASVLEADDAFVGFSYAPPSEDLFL

[7] = target: T2, Calcium/calmodulin-dependent protein kinase type IV (Homo sapiens) (UniProt Q16566); test: Selectivity interaction (KinomeScan (DiscoverX)) EUB0000655a CAMK4; settings: at 10 µM
T2 sequence (whole entry): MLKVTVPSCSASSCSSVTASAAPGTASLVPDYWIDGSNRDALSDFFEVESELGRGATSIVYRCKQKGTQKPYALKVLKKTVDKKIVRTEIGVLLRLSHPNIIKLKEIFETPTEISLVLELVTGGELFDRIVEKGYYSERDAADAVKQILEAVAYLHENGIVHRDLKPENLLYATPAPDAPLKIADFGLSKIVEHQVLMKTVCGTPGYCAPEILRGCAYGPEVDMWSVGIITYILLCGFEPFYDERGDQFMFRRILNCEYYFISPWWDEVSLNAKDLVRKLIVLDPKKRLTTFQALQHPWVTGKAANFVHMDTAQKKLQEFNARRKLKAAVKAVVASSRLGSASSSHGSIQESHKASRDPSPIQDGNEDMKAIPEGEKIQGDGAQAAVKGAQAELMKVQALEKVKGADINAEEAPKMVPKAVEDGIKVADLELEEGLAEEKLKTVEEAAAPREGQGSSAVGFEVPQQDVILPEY

[8] = target: Serine/threonine-protein kinase N1 (Homo sapiens, UniProt Q16512); test: Selectivity interaction (KinomeScan (DiscoverX)) EUB0000655a PKN1; settings: at 10 µM
[9] = target: T3, Receptor-interacting serine/threonine-protein kinase 4 (Homo sapiens) (UniProt P57078); test: Selectivity interaction (KinomeScan (DiscoverX)) EUB0000045b RIPK4
T3 sequence (whole entry): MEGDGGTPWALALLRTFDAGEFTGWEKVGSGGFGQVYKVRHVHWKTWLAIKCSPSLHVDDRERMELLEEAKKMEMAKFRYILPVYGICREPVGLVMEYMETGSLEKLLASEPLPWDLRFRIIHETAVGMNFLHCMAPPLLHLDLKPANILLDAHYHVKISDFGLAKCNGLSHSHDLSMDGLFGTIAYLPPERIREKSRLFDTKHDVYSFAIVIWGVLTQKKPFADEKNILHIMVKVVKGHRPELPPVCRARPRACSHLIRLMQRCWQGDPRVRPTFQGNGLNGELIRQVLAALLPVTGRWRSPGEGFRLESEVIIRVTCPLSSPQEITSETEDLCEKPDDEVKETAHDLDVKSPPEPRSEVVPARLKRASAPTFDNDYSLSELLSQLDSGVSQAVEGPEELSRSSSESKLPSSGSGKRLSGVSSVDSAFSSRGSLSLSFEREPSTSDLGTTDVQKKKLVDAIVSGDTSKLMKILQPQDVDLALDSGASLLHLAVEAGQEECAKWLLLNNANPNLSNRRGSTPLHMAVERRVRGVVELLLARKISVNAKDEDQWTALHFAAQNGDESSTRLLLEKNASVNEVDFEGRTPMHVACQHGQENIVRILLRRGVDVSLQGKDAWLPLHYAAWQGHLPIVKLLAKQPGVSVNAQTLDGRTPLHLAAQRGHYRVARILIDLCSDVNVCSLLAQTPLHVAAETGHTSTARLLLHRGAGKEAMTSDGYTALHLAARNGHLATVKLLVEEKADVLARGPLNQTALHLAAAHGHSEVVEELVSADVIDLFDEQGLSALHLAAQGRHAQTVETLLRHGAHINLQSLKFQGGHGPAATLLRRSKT

[10] = target: Serine/threonine-protein kinase MARK2 (Homo sapiens) (UniProt Q7KZI7); test: Selectivity interaction (Kinase panel (KiNativ target engagement assay in Jurkat cells)) EUB0001635a MARK2; format: cell-based; settings: Selectivity number of off-targets 0.0, Selectivity number of targets 233.0, Source Knowledge https://www.sciencedirect.com/science/article/pii/S2451945619300674?via%3Dihub, at 1 µM
Sequence of Serine/threonine-protein kinase MARK2 (Homo sapiens) (Q7KZI7 whole entry): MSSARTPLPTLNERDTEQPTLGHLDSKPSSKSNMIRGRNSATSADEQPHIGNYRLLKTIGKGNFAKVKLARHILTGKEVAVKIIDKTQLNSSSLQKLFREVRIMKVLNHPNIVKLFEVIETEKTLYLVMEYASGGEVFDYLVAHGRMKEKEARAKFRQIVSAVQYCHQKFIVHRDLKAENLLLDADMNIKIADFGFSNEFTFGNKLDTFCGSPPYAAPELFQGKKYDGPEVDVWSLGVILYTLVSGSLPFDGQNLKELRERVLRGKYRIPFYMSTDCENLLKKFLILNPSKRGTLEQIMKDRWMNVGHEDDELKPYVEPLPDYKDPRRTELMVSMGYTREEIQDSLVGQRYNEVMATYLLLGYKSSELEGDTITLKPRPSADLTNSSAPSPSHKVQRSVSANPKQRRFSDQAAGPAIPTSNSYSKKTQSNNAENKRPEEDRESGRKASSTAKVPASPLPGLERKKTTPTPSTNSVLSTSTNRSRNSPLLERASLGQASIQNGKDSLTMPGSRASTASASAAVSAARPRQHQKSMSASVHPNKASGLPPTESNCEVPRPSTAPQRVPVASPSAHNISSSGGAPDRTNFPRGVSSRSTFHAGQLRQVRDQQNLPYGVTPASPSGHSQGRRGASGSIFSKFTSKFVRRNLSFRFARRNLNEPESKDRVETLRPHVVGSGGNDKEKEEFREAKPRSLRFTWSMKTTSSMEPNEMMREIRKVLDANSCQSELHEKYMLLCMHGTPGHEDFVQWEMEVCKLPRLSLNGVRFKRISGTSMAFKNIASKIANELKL

[11] = target: Transcription initiation factor TFIID subunit 1 (Homo sapiens) (UniProt P21675); test: Selectivity interaction (Bromodomain panel (DSF asssay)) EUB0000270b TAF1
Sequence of Transcription initiation factor TFIID subunit 1 (Homo sapiens) (P21675 whole entry): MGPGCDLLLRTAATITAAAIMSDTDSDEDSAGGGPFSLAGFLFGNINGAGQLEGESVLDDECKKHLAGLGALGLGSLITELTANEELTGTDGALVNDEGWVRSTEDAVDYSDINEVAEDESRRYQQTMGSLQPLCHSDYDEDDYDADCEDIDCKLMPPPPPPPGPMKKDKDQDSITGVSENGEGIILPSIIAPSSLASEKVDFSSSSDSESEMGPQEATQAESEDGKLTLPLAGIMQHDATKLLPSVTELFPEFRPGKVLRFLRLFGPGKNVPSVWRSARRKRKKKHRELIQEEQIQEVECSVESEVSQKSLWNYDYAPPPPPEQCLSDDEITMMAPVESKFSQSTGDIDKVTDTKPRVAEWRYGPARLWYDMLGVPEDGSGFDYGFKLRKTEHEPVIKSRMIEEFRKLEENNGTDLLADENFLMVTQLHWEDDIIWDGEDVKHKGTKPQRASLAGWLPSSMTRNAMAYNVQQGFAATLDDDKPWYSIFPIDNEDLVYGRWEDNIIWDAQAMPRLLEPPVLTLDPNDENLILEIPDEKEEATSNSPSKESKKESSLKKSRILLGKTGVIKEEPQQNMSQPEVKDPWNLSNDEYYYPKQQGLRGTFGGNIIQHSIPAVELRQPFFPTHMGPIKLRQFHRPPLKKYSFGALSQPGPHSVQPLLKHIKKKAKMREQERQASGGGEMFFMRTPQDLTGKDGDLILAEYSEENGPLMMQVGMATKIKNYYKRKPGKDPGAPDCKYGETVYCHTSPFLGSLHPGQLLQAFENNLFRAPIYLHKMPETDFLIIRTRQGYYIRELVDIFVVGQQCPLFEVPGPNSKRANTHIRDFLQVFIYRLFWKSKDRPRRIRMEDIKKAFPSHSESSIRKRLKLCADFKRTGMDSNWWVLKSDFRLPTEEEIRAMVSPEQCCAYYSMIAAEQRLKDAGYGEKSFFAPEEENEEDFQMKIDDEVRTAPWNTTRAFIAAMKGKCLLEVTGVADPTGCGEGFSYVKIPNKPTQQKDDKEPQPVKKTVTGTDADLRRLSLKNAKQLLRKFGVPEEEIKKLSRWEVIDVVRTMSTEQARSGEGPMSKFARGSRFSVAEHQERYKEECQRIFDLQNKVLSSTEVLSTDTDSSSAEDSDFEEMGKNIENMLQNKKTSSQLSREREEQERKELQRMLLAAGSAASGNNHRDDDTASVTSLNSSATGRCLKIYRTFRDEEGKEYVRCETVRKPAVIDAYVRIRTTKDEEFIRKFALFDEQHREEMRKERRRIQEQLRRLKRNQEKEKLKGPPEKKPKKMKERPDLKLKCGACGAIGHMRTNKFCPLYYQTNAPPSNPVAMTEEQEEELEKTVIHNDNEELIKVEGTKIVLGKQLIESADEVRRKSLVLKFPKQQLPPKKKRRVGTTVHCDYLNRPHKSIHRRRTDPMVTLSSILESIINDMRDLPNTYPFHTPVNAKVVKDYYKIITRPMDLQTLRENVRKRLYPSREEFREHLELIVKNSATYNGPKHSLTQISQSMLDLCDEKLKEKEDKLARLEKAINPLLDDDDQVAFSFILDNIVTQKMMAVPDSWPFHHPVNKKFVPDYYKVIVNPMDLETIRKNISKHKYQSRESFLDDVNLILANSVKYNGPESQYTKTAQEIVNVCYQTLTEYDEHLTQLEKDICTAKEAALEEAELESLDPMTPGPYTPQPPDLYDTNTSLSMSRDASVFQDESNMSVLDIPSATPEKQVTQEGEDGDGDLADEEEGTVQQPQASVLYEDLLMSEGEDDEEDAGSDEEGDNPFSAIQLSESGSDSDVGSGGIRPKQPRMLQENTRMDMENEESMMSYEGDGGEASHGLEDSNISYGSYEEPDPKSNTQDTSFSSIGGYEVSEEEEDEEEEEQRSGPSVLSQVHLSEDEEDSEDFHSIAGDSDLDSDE

Sequence of Histone-lysine N-methyltransferase KMT5C (Homo sapiens) (Q86Y97 whole entry, looked up): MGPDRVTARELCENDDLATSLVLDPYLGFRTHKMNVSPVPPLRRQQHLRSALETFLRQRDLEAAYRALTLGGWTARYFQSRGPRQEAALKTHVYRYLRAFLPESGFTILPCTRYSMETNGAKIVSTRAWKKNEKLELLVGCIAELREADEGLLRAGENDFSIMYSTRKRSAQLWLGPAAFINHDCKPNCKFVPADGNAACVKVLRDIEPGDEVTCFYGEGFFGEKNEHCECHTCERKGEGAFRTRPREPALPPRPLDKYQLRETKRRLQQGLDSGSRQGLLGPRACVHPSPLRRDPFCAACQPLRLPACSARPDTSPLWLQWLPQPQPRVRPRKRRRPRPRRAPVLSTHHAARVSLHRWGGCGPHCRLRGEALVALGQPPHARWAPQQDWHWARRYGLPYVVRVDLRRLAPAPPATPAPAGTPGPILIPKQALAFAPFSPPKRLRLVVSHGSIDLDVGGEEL
Sequence of Glycogen synthase kinase-3 beta (P49841 whole entry, looked up): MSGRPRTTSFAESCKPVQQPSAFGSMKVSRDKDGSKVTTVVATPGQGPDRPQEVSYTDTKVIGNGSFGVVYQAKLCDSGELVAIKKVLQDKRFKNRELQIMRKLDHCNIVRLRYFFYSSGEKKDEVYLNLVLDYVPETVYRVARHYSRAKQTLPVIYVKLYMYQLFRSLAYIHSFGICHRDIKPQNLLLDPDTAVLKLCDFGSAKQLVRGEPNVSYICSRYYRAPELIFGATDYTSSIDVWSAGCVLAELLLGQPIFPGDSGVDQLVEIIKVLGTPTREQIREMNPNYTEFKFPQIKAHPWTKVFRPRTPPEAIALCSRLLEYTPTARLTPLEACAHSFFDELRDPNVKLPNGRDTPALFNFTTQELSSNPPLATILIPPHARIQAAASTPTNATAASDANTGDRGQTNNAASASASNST

**Q.** How did the % of inhibition [1] turn out when `Cn1cc(-n2cnc3c(NCc4nc5cc(Cl)c(Cl)cc5[nH]4)nc(N4CCOCC4)nc32)cn1` was run?
**A.** The % of inhibition was 96.5%.

**Q.** For `COCCN1CCC(c2cc(CN(C)C(=O)c3cccc(Oc4ccccc4)c3)ccn2)CC1`, which % activity ([2]; at 1 µM) is on record?
**A.** Its % activity is over 95%.

**Q.** And the % activity ([2]; at 10 µM)?
**A.** The % activity was over 90%.

**Q.** Which % of control [3] does the source give for `Cc1cc(F)c(C(=O)Nc2cccc(-c3nncn3C(C)C)n2)cc1-n1cnc(C2CC2)c1` here?
**A.** The % of control was 100%.

**Q.** For `Cc1cnc(Nc2ccc(F)cc2Cl)nc1-c1c[nH]c(C(=O)N[C@H](CO)c2cccc(Cl)c2)c1`, which % of inhibition [4] is on record?
**A.** Its % of inhibition is 6%.

**Q.** `CC(=O)Nc1cccc(-n2c(=O)n(C3CC3)c(=O)c3c(Nc4ccc(I)cc4F)n(C)c(=O)c(C)c32)c1` was tested. Which % of control [5] did it give?
**A.** Its % of control is 74%.

**Q.** For `CN(C)C/C=C/C(=O)Nc1ccc(C(=O)N2CCCC(Nc3ncc(Cl)c(-c4c[nH]c5ccccc45)n3)C2)cc1` (stereo not drawn), which % of control [6] is on record?
**A.** Its % of control is 84%.

**Q.** What does the source list for `CN(C)CCOc1ccc(-c2nc(-c3ccncc3)c(-c3ccc4c(c3)CC/C4=N\O)[nH]2)cc1`?
**A.** % of control [7]: 87%; % of control [8]: 92%

**Q.** `C=CC(=O)Nc1cc(-n2c(=O)ccc3cnc4ccc(-c5ccc(NS(C)(=O)=O)cc5)cc4c32)ccc1C` was tested. Which % of control ([9]; at 1 µM) did it give?
**A.** Its % of control is 100%.

**Q.** What about the % of control ([9]; at 10 µM) of the same molecule?
**A.** Its % of control is 100%.

**Q.** How did the % of engagement [10] turn out when `C=CC(=O)Nc1ccc(C(=O)Nc2[nH]nc3c2CN(C(=O)N[C@H](CN(C)C)c2ccccc2)C3(C)C)cc1` was run?
**A.** Its % of engagement is -1.9%.

**Q.** `Cc1cc(CN)cc(C)c1-c1ncn(C)c1-c1cncn1C` was tested. Which dTM [11] did it give?
**A.** Its dTM is -1.15 K.
